Measurements published in patent US20090068143A1, “ORALLY EFFECTIVE C[…]” (priority 2005, published 2009).
Like-named read-outs stand apart in the source and are kept apart here.

Assays:
MBP induced acute EAE = assay: MBP induced acute EAE; format: in vivo, Lewis rats; conditions: 30 mg/kg i.v. daily for 5 consecutive days from day of disease induction
Experimental: In the present study, EAE was induced by injection of Myelin Basic Protein (MBP), a method known to model the acute phase of MS. In this model the onset of the disease is observed by the appearance of clinical symptoms about 10 days after induction. The disease progresses and the clinical score increases and peaks around day 15 and spontaneous recovery is observed around day 23 after induction of the disease.
Female Lewis rats (average body weight 130-180 g, Harlan, Israel) were injected s.c. into the hind paws with 25 μg of purified guinea pig myelin basic protein (MBP, Sigma) emulsified in 0.1 ml of Complete Freund's Adjuvant (Difco). Animals were maintained on a 12 hours light/12 hours dark regimen, at a constant temperature of 22° C., with food and water ad libitum. Starting from day 8 following induction, animals were followed up on a daily basis. The results are recorded as clinical score; score of 0 indicates a normal animal with no clinical signs, 0.5 indicates a loss of tonicity in the tail's distal part, 1 indicates whole tail paralysis, 1.5 indicates hind legs weakness in one leg, 2 indicates hind legs weakness in two legs, 2.5 indicates fore legs paralysis in one leg, 3 indicates paralysis of all four legs, 4 indicates complete body paralysis and moribund state and 5 indicates death. The clinical score of the animals is recorded for 15 days following onset of disease until the end of the study 25 days following induction and the area under the curve (AUC) is calculated over this period of time.
Few routes of administration were assessed and the treatments were either administered intravenously (in CE vehicle) or orally by gavage (in PB vehicle) at volume dose of 5 ml/kg.
Results are expressed as mean±SEM and the differences between the treatment groups were analyzed by analysis of variance (ANOVA) followed by Tukey's post hoc test. A value of p<0.05 was considered to be statistically significant and is indicated on the figure by an asterisk over the relevant treatment group.
Compound 18A was dissolved in CREMOPHOR EL®:ethanol and further diluted in physiological buffer prior to i.v. administration. It is now disclosed that compound 18F could be dissolved directly in 80 mM phosphate buffer (pH 6.4) and administered p.o. Compound 18F was administered by oral gavage at doses of 20, 30, 40, 50 and 60 mg/kg to animals showing clinical signs of the disease. Each treatment group comprised at least 10 animals at onset of disease. At some doses, experiments were repeated up to four times.

visceral pain = assay: Visceral pain, acetic acid induced writhing responses; format: in vivo, ICR mice; conditions: for activity in visceral pain model: fumaric acid up to 5 mg/kg, Gabapentin up to 200 mg/kg, celecoxib up to 10 mg/kg; for effect of antagonist alone on number of writhing responses: 1 mg/kg i.v.; for reduction of writhing responses as compared to vehicle treated animals: second study; for inhibition of pain response as compared to untreated animals: 10 mg/kg p.o. in phosphate buffer
Experimental: For the i.v. part of the study, compounds were dissolved in CREMOPHOR®:Ethanol and diluted 1:20 in saline prior to injection, fifteen minutes before pain induction. When compounds were delivered per os, they were dissolved in phosphate buffer or in CREMOPHOR®:Ethanol as previously described and administered 1 hour before pain induction. Each treatment group, except for controls comprising at least 30 animals, was composed of at least 6 animals. Fifteen or sixty minutes later, depending on the route selected for drug administration, the mice were injected i.p. with 10 ml/kg of 0.6% acetic acid and the number of visceral pain related behaviors (writhing, stretching, contractions of the abdomen accompanied by an elongation of the body and extension of the hind limbs) is counted over a period of 5 minutes, starting 5 minutes after the acetic acid administration. These visceral pain related behaviors are globally defined as writhing responses (WR). The results are expressed as mean number of writhing responses±SEM. Data were analyzed using analysis of variance (ANOVA) followed by post-hoc Fisher test. A value of p<0.05 was considered to be statistically significant and is indicated on the figure by an asterisk over the relevant treatment group.
The following results were obtained at 2 mg/kg i.v. of test compounds or, in the case of the study performed with cannabinoid receptor antagonists, 1 mg/kg test compound or antagonist alone and 1 mg/kg test compound+1 mg/kg antagonist. In a separate study, it was shown that analgesic activity of compounds of the invention was dose related.

CB2 receptor = CB2 receptor (Homo sapiens, UniProt P34972); assay: CB2 binding assay
CB1 receptor = CB1 receptor (Homo sapiens, UniProt P21554); assay: CB1 binding assay
iNOS = iNOS gene expression in LPS activated RAW 264.7 macrophages (real-time RT-PCR); format: cell-based, mouse; conditions: 10 μM, 1 h pre-treatment, 3 hrs after LPS activation
Experimental: RAW 264.7 macrophages, a mouse cell line (ATCC # TIB 71), were grown in Dulbecco's modified Eagle's medium (DMEM) with 4 mM L-glutamine adjusted to contain 1.5 g/L sodium bicarbonate, 4.5 g/L glucose, and 10% heat inactivated fetal bovine serum. Cells were grown in tissue culture flasks and seeded at appropriate density into 6 wells tissue culture plates. Four million Raw cells in half a milliliter were stimulated with 1 μg/ml Lipopolysaccharide E. coli 055:B5 (DIFCO Laboratories). The mouse macrophages were pre-treated for one hour with controls or 10 μM of test compounds, and later on activated with LPS. RNA samples were extracted from the cells 3 hrs after activation and iNOS gene expression levels were analyzed by real-time RT-PCR as previously described. For western blot analysis, compounds were tested at 1, 5 and 10 μM and cells were harvested 24 hrs after LPS stimulation. Supernatant were collected and NO secretion was analyzed using ELISA. Cells were washed 3 times with cold PBS, scrapped and lyzed in 100 μl cell lysis buffer containing 20 mM HEPES, pH 7.6, 150 mM NaCl, 1.5 mM MgCl2, 0.2 mM EDTA, 1% Triton X-100, 10% glycerol, 1 mM DTT, 1 mM PMSF, 10 μg/ml aprotinin. 5 µg/ml leupeptin, 10 mM p-nitrophenyl phosphate, 100 mM β-glycerophosphate, 1 mM sodium fluoride, and 0.1 μM sodium orthovanadate. Cells were lyzed on ice for 10 minutes before further processing.
The results of this experiment are expressed as fold activation of iNOS over non-activated macrophages, after normalization to cyclophilin A expression. Compound 18A inhibits 63% of iNOS gene expression, and compounds 18B, 18E and 18F inhibit 55%, 25% and 100% respectively. […] This surprising observation strengthen the fact that compounds of the invention, though chemically related, have distinct and unexpected properties.

inflammatory pain = assay: Inflammatory pain and paw edema, λ carrageenan; format: in vivo, Sprague Dawley rats
Experimental: Male Sprague Dawley rats (average body weight 200 g, Harlan, Israel) were transiently sedated by placement on dry ice for the duration of the injections. Rats were injected subcutaneously, in the subplantar region of one (right) paw with 0.1 ml of 2% w/v λ Carrageenan in sterile saline. […] Test compounds were administered p.o. by oral gavage immediately after the carrageenan injection as pretreatment. Vehicle (PB) treated animals were used as controls. Before induction of inflammatory pain and three hours after injection, the animals reactions to pain stimuli were tested in two systems. The first stimulus was thermal and assessed by the Plantar Test according to Hargreaves, using Ugo Basile Model 7370. The scale was set to an intensity of 50 arbitrary units. The latency time till the animal lift a paw as a reaction to the thermal stimulus was recorded for both the inflamed and non-inflamed hind paws. The second stimulus was mechanical (tactile) and assessed using a Dynamic Plantar Sesthesiomether (Ugo Basile Model 73400-002). […] Finally, the impact on paw edema was assessed. Paw thickness is measured using a dial thickness gauge (Spring-dial, constant low pressure gauge, Mitutoyo, TG/L-1, 0.00 mm) and paw volume is measured using a plethysmometer (model #7150, Ugo Basile, Italy). At the end of the study, animals were euthanized with an i.p. injection of 100 mg/kg pentobarbitone.
The results are measured as the differences between the two hind paws at time 0 and 3 hours both as ALT, for the latency time in the thermal part of the study, and as ΔForce, for the mechanical part of the study. The paw volume is expressed as percent from vehicle treated animals. Results are expressed as mean±SEM for each treatment group and the differences among those groups are analyzed by analysis of variance (ANOVA) followed by post-hoc Tukey's test. A value of p<0.05 was considered to be statistically significant and is indicated on the figure by an asterisk over the relevant treatment group.

Sequence of CB1 receptor (P21554 whole entry): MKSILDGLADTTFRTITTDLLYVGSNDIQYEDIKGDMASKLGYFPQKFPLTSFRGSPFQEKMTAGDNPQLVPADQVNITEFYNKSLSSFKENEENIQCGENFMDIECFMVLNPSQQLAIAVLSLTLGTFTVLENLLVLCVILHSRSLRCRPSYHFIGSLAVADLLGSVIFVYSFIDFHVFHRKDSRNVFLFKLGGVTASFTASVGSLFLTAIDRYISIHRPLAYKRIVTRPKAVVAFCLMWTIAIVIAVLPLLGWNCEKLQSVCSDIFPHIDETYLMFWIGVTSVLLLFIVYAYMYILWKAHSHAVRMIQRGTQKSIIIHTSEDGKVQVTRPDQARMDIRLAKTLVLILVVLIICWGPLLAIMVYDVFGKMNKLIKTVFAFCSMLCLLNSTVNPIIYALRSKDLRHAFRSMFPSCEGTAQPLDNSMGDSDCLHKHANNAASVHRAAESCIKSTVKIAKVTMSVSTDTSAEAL
Sequence of CB2 receptor (P34972 whole entry): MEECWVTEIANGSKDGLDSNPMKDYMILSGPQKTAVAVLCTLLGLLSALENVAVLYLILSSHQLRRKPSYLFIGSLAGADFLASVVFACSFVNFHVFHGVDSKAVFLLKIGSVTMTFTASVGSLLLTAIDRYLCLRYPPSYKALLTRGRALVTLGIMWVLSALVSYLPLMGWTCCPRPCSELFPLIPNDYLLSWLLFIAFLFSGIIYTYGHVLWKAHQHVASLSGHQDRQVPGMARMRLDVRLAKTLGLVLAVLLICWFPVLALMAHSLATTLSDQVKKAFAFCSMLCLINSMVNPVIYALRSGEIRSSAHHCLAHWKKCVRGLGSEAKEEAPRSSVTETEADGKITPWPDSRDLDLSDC

Molecule: C[C@H]1C[C@@H]2[C@H]([C@@H](O)C[C@@]3(C)[C@H]2CC[C@]3(O)C(=O)CO)[C@@]2(C)C=CC(=O)C=C12 [methylprednisolone, reference compound]
- reduction in AUC of clinical score (MBP induced acute EAE): 34%

Molecule: O=C(O)/C=C/C(=O)O [fumaric acid, reference compound]
- activity in visceral pain model (visceral pain): inactive

Molecule: Cc1ccc(-c2cc(C(F)(F)F)nn2-c2ccc(S(N)(=O)=O)cc2)cc1 [celecoxib, reference compound]
- activity in visceral pain model (visceral pain): inactive

Molecule: SR144528 [reference compound]
- effect of antagonist alone on number of writhing responses (visceral pain): had not effect

Molecule: CCCCCCC(C)(C)c1cc(OP(=O)(OCC)OCC)c([C@H]2CC(=O)C3CC2C3(C)C)c(OP(=O)(OCC)OCC)c1 (single isomer, unassigned; (-)) [Compound 18D, (−)-4-{4-[1,1-dimethylheptyl]-2,6-bi-diethylphosphate-phenyl}-6,6-dimethyl-bicyclo[3.1.1]heptan-2-one]
- IC50 (CB2 receptor): > 1000 nM
- inhibition of writhing responses as compared to vehicle treated group (visceral pain; 2 mg/kg i.v.): minimal effect
- IC50 (CB1 receptor): > 1000 nM

Molecule: Oc1cc2c(cc1O)CN(C(=S)NCCc1ccc(Cl)cc1)CCC2 [CPZ, Capsazepine, reference compound]
- reduction of writhing responses as compared to vehicle treated animals (visceral pain; 0.5 mg/kg i.v.): no activity
- reduction of writhing responses as compared to vehicle treated animals (visceral pain; 2 mg/kg i.v.): 67%

Molecule: (−)-4-{4-[1,1-Dimethylpentyl]-2-succinate-6-hydroxy-phenyl}-6,6-dimethyl-bicyclo[3.1.1]heptan-2-one [Compound 18E]
- IC50 (CB2 receptor; read-out: CB2 IC50, displacement of radioligand): 7.4 nM
- inhibition of iNOS gene expression (iNOS): 25%
- inhibition of writhing responses as compared to vehicle treated group (visceral pain; 2 mg/kg i.v.): minimal effect
- inhibition of pain response as compared to untreated animals (visceral pain): not effective
- IC50 (CB1 receptor; read-out: CB1 IC50, displacement of radioligand): 315 nM

Molecule: CCCCCCC(C)(C)c1cc(OC(=O)/C=C/C(=O)O)c(C2CC(=O)[C@H]3C[C@@H]2C3(C)C)c(OC(=O)/C=C/C(=O)O)c1 (single isomer, unassigned; (-)) [Compound 18G, (−)-4-{4-[1,1-Dimethylheptyl]-2,6-difumarate-phenyl}-6,6-dimethyl-bicyclo[3.1.1]heptan-2-one]
- IC50 (CB2 receptor): 30 nM
- inhibition of writhing responses as compared to vehicle treated group (visceral pain; 2 mg/kg i.v.): 91%
- inhibition of pain response as compared to untreated animals (visceral pain): 56%
- paw volume, percent of vehicle (inflammatory pain; 20 mg/kg p.o.): 96%
- reduction of ΔLT, thermal stimulus (inflammatory pain; 20 mg/kg p.o.): ineffective
- reduction in Δforce, mechanical stimulus (inflammatory pain; single dose of 20 mg/kg p.o.): 8%
- IC50 (CB1 receptor): 325 nM

Molecule: Cc1c(C(=O)NN2CCCCC2)nn(-c2ccc(Cl)cc2Cl)c1-c1ccc(Cl)cc1 [SR141716A, reference compound]
- effect of antagonist alone on number of writhing responses (visceral pain): had not effect

Molecule: CCCCC(C)(C)c1cc(O)c([C@H]2CC(=O)C3CC2C3(C)C)c(OC(=O)/C=C/C(=O)O)c1 (single isomer, unassigned; (-)) [Compound 18H, (−)-4-{4-[1,1-Dimethylpentyl]-2-fumarate-6-hydroxy-phenyl}-6,6-dimethyl-bicyclo[3.1.1]heptan-2-one]
- inhibition of writhing responses as compared to vehicle treated group (visceral pain; 2 mg/kg i.v.): 38%
- inhibition of pain response as compared to untreated animals (visceral pain): not effective

Molecule: CCCCCCC(C)(C)c1cc(OC(=O)CCC(=O)O)c([C@H]2CC(=O)C3CC2C3(C)C)c(OC(=O)CCC(=O)O)c1 (single isomer, unassigned; (-)) [Compound 18C, (−)-4-{4-[1,1-dimethylheptyl]-2,6-disuccinate-phenyl}-6,6-dimethyl-bicyclo[3.1.1]heptan-2-one]
- IC50 (CB2 receptor): 1.52 nM
- inhibition of pain response as compared to untreated animals (visceral pain): 93%
- IC50 (CB1 receptor): 117 nM
